According to patent publication US20230121116A1, “USE OF QUINAZOLINE-BASED TYROSINE KINASE INHIBITORS FOR THE TREATMENT OF CANCERS WITH NRG1 FUSIONS” (Board of Regents, The University of Texas System, priority 2020, published 2023):

Test system: MDA175-VII (NRG1-DOC4 fusion) cells
Experiment: Cell viability of MDA175-VII (NRG1-DOC4 fusion) cells, Cell Titer Glo assay
Type: cell-based
Details: MDA175-VII (NRG1-DOC4 fusion) cells treated with IACS inhibitors, 72 hours
Experimental: FIG. 1A. Representative dose response curves of MDA175-VII (NRG1-DOC4 fusion) treated with the indicated IACS novel quinazoline-based TKIs for 72 hours. Cell viability was determined by Cell Titer Glo Assay.
FIG. 3A. Representative dose response curves of MDA175-VII (NRG1-DOC4 fusion) treated with the indicated anti-HER2 therapy with or without low dose treatment of IACS inhibitors for 72 hours. Cell viability was determined by Cell Titer Glo Assay.
Cell viability was determined by the Cell Titer Glo assay.

| Molecule | IC50 |
| --- | --- |
| C=CC(=O)N1CCC(Oc2cc3c(Nc4ccc(Cl)c(Cl)c4F)ncnc3cc2OC)C1 (centres unmarked) [IACS-070968] | 3.12 nM |
| C=CC(=O)N1CCC(Oc2cc3c(Nc4ccc(Cl)cc4Cl)ncnc3cc2OC)CC1 [IACS-070980] | 4.46 nM |
| C=CC(=O)N1CCC(Oc2cc3c(Nc4ccc(Cl)c(Cl)c4)ncnc3cc2OC)CC1 [IACS-070979] | 0.157 nM |
| C=CC(=O)N1CCC(Oc2cc3c(Nc4ccc(Cl)c(Cl)c4F)c(C#N)cnc3cc2OC)CC1 [IACS-070709] | 1.29 nM |
| C=CC(=O)N1CC(Oc2cc3c(Nc4ccc(Cl)cc4Cl)ncnc3cc2OC)C1 [IACS-070863] | 10.5 nM |
| C=CC(=O)N1CC(Oc2cc3c(Nc4ccc(Br)c(Cl)c4)ncnc3cc2OC)C1 [IACS-070864] | 0.979 nM |
| C=CC(=O)N1CC(Oc2cc3c(Nc4ccc(Cl)c(Cl)c4F)ncnc3cc2OC)C1 [IACS-015293] | 0.16 nM |
| C=CC(=O)N1CC(Oc2cc3c(Nc4ccc(Cl)c(Cl)c4)ncnc3cc2OC)C1 [IACS-015285] | 0.268 nM |
| C=CC(=O)N1CCC(Oc2cc3c(Nc4ccc(Br)c(Cl)c4)ncnc3cc2OC)CC1 [IACS-070982] | 0.296 nM |
| C=CC(=O)N1CC(Oc2cc3c(Nc4ccccc4)ncnc3cc2OC)C1 [IACS-070871] | 1.08 nM |
| C=CC(=O)N1CCC(Oc2cc3c(Nc4ccccc4)ncnc3cc2OC)CC1 [IACS-070989] | 1.03 nM |
| C=CC(=O)N1CC(Oc2ccc3ncnc(Nc4ccc(Cl)c(Cl)c4)c3n2)C1 [IACS-052336] | 26.8 nM |

Same assay, conditions: MDA175-VII (NRG1-DOC4 fusion) cells treated with anti-HER2 antibodies with or without low dose IACS inhibitors, 72 hours

| Molecule | IC50 |
| --- | --- |
| T-DM1 [reference compound] | 652 nM |
| Pertuzumab: recombinant, humanized monoclonal antibody that inhibits dimerization of HER2 [reference compound] | 58.2 nM |
